{
  "source": "patent US20250262214A1",
  "about": "“INTERMITTENT DOSING REGIMEN FOR AZENOSERTIB IN TREATING CANCER” (Zeno Management, Inc., priority 2022, published 2025)",
  "system": "MDA-MB-468 triple negative breast cancer tumor model",
  "test": "MDA-MB-468 triple negative breast cancer tumor model, tumor growth inhibition",
  "format": "in vivo",
  "details": "niraparib single agent, 50 mg/kg",
  "description": "In vivo exploration of dose and schedule of Azenosertib and PARPi (niraparib, talazoparib) including exploration of alternating dosing was evaluated.",
  "data": [
    {"smiles": "NC(=O)c1cccc2cn(-c3ccc([C@@H]4CCCNC4)cc3)nc12", "note": "[niraparib, reference compound]", "values": [
      {"measurement": "tumor growth inhibition (TGI)", "result": 47.7, "unit": "%"}
    ]}
  ]
}
